According to patent US10428044B2, “3-amino-1,5,6,7-tetrahydro-4H-indol-4-ones” (Bayer Pharma Aktiengesellschaft, priority 2014, dated 2019):

Molecular target: (recombinant) catalytic domain of human Bub1 (amino acids 704-1085) (Homo sapiens (Human), UniProt O43683)
Experiment: Bub1 kinase assay (TR-FRET)
Type: biochemical
Conditions: ATP 10 μM final, peptide substrate 1 μM final, 60 min at 22° C., read-out: Biological Assay: Bub1 kinase assay median IC50
Procedure: Examples were tested in selected biological assays one or more times. When tested more than once, data are reported as either average values or as median values, wherein • the average value, also referred to as the arithmetic mean value, represents the sum of the values obtained divided by the number of times tested, and • the median value represents the middle number of the group of values when ranked in ascending or descending order. If the number of values in the data set is odd, the median is the middle value. If the number of values in the data set is even, the median is the arithmetic mean of the two middle values.
To this end, 100-fold concentrated compound solutions (in DMSO) were previously prepared by serial dilution (1:3.4) of 2 mM stocks in a clear low volume 384-well source microtiter plate (Greiner Bio-One, Frickenhausen, Germany), from which 50 nl of compounds were transferred into a black low volume test microtiter plate from the same supplier. […] The resulting mixture (5 μL final volume) was incubated at 22° C. during 60 min., and the reaction was stopped by the addition of 5 μL of an aqueous EDTA-solution (50 mM EDTA, in 100 mM HEPES pH 7.5 and 0.2% (w/v) bovine serum albumin) which also contained the TR-FRET detection reagents (0.2 μM streptavidin-XL665 [Cisbio Bioassays, Codolet, France] and 1 nM anti-phosho-Serine antibody [Merck Millipore, cat. #35-002] and 0.4 nM LANCE EU-W1024 labeled anti-mouse IgG antibody [Perkin-Elmer, product no. AD0077, alternatively a Terbium-cryptate-labeled anti-mouse IgG antibody from Cisbio Bioassays can be used]). The stopped reaction mixture was further incubated 1 h at 22° C. in order to allow the formation of complexes between peptides and detection reagents. Subsequently, the amount of product was evaluated by measurement of the resonance energy transfer from the Eu-chelate-antibody complex recognizing the Phosphoserine residue to the streptavidin-XL665 bound to the biotin moiety of the peptide. […] The data were normalised using two sets of control wells for high- (=enzyme reaction without inhibitor=0%=Minimum inhibition) and low- (=all assay components without enzyme=100%=Maximum inhibition) Bub1 activity. IC50 values were calculated by fitting the normalized inhibition data to a 4-parameter logistic equation (Minimum, Maximum, IC50, Hill; Y=Max+(Min−Max)/(1+(X/IC50)Hill)).

Chain of (recombinant) catalytic domain of human Bub1 (amino acids 704-1085) (O43683 704-1085): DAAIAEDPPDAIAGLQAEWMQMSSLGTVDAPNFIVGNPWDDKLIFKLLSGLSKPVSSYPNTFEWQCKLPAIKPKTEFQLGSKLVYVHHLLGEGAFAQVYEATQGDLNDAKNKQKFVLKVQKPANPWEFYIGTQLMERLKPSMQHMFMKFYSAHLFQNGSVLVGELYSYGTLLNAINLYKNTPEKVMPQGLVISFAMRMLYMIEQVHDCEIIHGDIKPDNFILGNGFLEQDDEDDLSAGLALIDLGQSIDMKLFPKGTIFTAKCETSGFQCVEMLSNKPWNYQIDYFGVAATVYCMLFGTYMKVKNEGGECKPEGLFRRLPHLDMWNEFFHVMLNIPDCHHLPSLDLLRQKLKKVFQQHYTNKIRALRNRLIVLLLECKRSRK

IC50 [nM]	SMILES
20.4	CC1(C)CC(=O)c2c([nH]c(-c3ccnc(F)c3)c2Nc2cccc(F)c2)C1 [Example 24, 3-[(3-fluorophenyl)amino]-2-(2-fluoropyridin-4-yl)-6,6-dimethyl-1,5,6,7-tetrahydro-4H-indol-4-one]
26.3	CC1(C)CC(=O)c2c([nH]c(-c3ccncc3)c2Nc2ccccn2)C1 [Example 25, 6,6-dimethyl-2-(pyridin-4-yl)-3-(pyridin-2-ylamino)-1,5,6,7-tetrahydro-4H-indol-4-one]
32.7	CC1(C)CC(=O)c2c([nH]c(-c3ccncc3)c2Nc2ccc3ccoc3c2)C1 [Example 26, 3-(1-benzofuran-6-ylamino)-6,6-dimethyl-2-(pyridin-4-yl)-1,5,6,7-tetrahydro-4H-indol-4-one]
43.3	CC1(C)CC(=O)c2c([nH]c(-c3ccnc4[nH]ccc34)c2Nc2ccccc2)C1 [Example 27, 6,6-dimethyl-3-(phenylamino)-2-(1H-pyrrolo[2,3-b]pyridin-4-yl)-1,5,6,7-tetrahydro-4H-indol-4-one]
5.93	CCC1CC(=O)c2c([nH]c(-c3ccncc3)c2Nc2ccccc2)C1 (stereo not shown) [Example 28, 6-ethyl-3-(phenylamino)-2-(pyridin-4-yl)-1,5,6,7-tetrahydro-4H-indol-4-one]
6.17	CC(C)CC1CC(=O)c2c([nH]c(-c3ccncc3)c2Nc2ccccc2)C1 (stereo not shown) [Example 29, 6-(2-methylpropyl)-3-(phenylamino)-2-(pyridin-4-yl)-1,5,6,7-tetrahydro-4H-indol-4-one]
5.69	CC1(C)CC(=O)c2c([nH]c(-c3ccncc3F)c2Nc2ccccc2)C1 [Example 30, 2-(3-fluoropyridin-4-yl)-6,6-dimethyl-3-(phenylamino)-1,5,6,7-tetrahydro-4H-indol-4-one]
5.55	CC1(C)CC(=O)c2c([nH]c(-c3ccncc3)c2Nc2cc(F)cc(F)c2)C1 [Example 31, 3-[(3,5-difluorophenyl)amino]-6,6-dimethyl-2-(pyridin-4-yl)-1,5,6,7-tetrahydro-4H-indol-4-one]
15.7	CC1(C)CC(=O)c2c([nH]c(-c3ccncc3)c2Nc2cc(F)c(F)c(F)c2)C1 [Example 32, 6,6-dimethyl-2-(pyridin-4-yl)-3-[(3,4,5-trifluorophenyl)amino]-1,5,6,7-tetrahydro-4H-indol-4-one]
17.9	O=C1CCCc2[nH]c(-c3ccncc3Cl)c(Nc3ccccc3)c21 [Example 33, 2-(3-chloropyridin-4-yl)-3-(phenylamino)-1,5,6,7-tetrahydro-4H-indol-4-one]
31	CC1(C)CC(=O)c2c([nH]c(-c3ccnc4[nH]ncc34)c2Nc2ccccc2)C1 [Example 34, 6,6-dimethyl-3-(phenylamino)-2-(1H-pyrazolo[3,4-b]pyridin-4-yl)-1,5,6,7-tetrahydro-4H-indol-4-one]
17.4	CCC(=O)Nc1cc(-c2[nH]c3c(c2Nc2ccccc2)C(=O)CC(C)(C)C3)ccn1 [Example 35, N-{4-[6,6-dimethyl-4-oxo-3-(phenylamino)-4,5,6,7-tetrahydro-1H-indol-2-yl]pyridin-2-yl}propanamide]
26.4	CC(=O)Nc1cc(-c2[nH]c3c(c2Nc2ccccc2)C(=O)CC(C)(C)C3)ccn1 [Example 36, N-{4-[6,6-dimethyl-4-oxo-3-(phenylamino)-4,5,6,7-tetrahydro-1H-indol-2-yl]pyridin-2-yl}acetamide]
8.5	O=C1CC2(CC2)Cc2[nH]c(-c3ccncc3)c(Nc3ccccc3)c21 [Example 37, 3′-(phenylamino)-2′-(pyridin-4-yl)-1′,7′-dihydrospiro[cyclopropane-1,6′-indol]-4′(5′H)-one]
7.97	O=C1CCCc2[nH]c(-c3ccncc3)c(Nc3ccc(F)c(F)c3)c21 [Example 38, 3-[(3,4-difluorophenyl)amino]-2-(pyridin-4-yl)-1,5,6,7-tetrahydro-4H-indol-4-one]
14.8	CC(=O)Nc1cc(-c2[nH]c3c(c2Nc2ccccc2)C(=O)CCC3)ccn1 [Example 39, N-{4-[4-oxo-3-(phenylamino)-4,5,6,7-tetrahydro-1H-indol-2-yl]pyridin-2-yl}acetamide]
